Data as given in patent publication US7955852B2, “Expansion of renewable stem cell populations” (Gamida Cell Ltd., priority 2002, dated 2011).
Values joined by “and” are separate entries in the source; they are usually repeats but may differ in a detail not shown here. Equal values may be shown once.

Columns and labels:
mononuclear cells = assay: Ex-vivo expansion of whole mononuclear cell fraction (MNC) cultures; FACS of reselected CD34+ cells; type: cell-based, human; settings: 10^−6 M + cytokines; for % CD34/Lin−: reselected CD34+ fraction, listed as RAR antagonist
Method: Human blood cells were obtained from umbilical cord blood from female patients following full-term, normal delivery (informed consent was obtained).
Samples were collected and processed within 12 hours postpartum. Blood was mixed with 3% Gelatin (Sigma, St. Louis, Mo.), sedimented for 30 minutes to remove most red blood cells. The leukocyte-rich fraction was harvested and layered on a Ficoll-Hypaque gradient (1.077 gram/ml; Sigma), and centrifuged at 400 g for 30 minutes. The mononuclear cell fraction in the interface layer was collected, washed three times and resuspended in phosphate-buffered saline (PBS) solution (Biological Industries) containing 0.5% bovine serum albumin (BSA, Fraction V; Sigma).
Alternatively, whole mononuclear fraction cells (MNC) were isolated, cultured and supplemented with cytokines, as above.
CD34^+ purified and whole MNC cultures were prepared and maintained as described above. AGN 194310 RAR antagonist was added to test cultures at concentrations ranging from 1×10^−3-1×10^−11 M [or 410 μg/l to 4.1×10^−5 μg/l]. The antagonist was added for a predetermined, limited period, for up to three weeks or continuously during the entire culture period.
CD34 surface expression on short and long-term cultures initiated either with purified CD34^+ cells or the entire MNC fraction was determined as follows: CD34^+ cells were positively reselected (Miltenyi kit) and counted. Purity was confirmed by subsequent FACS and cell morphology analysis.
Reselected CD34^+ cell subsets were stained for the following combination of antigens: CD34PE/CD38FITC and CD34PE/38, 33, 14, 15, 3, 4, 61, 19 (Lin) FITC. The fraction positive for CD34 and negative for CD38 was defined as CD34^+CD38^−. The fraction positive for CD34 and negative for LIN was defined as CD34^+Lin^− cell fraction.
Total cell counts, numbers of CD34^+ cells and subsets, and CFU numbers are presented as cumulative numbers, with the assumption that the cultures had not been passaged; i.e., the number of cells per ml were multiplied by the number of passages performed.

primary hepatocytes = assay: Primary hepatocyte cultures; α-fetoprotein/albumin immunostaining and Giemsa morphology; type: cell-based, mice; settings: for oval cell population (Giemsa) / α-fetoprotein (AFP) expression vs control: 10^−5 M, three week old primary cultures, no cytokines
Method: Three intact livers were harvested from 3 week old VLVC female mice (Harlan Laboratories, Jerusalem, Israel), dissected and washed twice with DMEM (Beit Haemek, Israel), incubated with DMEM in the presence 0.05% collagenase for 30 minutes at 37° C., ground and passed through a 200 μm mesh sieve, yielding individual hepatocytes. Cells were washed twice and viability was ascertained with trypan blue. Cells were plated in collagen-coated, 35 mm tissue culture plates at a density of 4-×10^4 live cells/ml in F12 media (containing 15 mM Hepes, 0.1% glucose, 10 mM sodium bicarbonate, 100 units/ml penicillin-streptomycin, glutamine, 0.5 units/ml insulin, 7.5 m cg/ml hydrocortisone, and 10% fetal bovine serum). Medium was changed after 12 hours, the cells were washed twice with phosphate buffered saline (PBS) and new medium was added. Medium was changed twice a week.
Hepatocytes were also grown in the presence of Epidermal Growth Factor (EGF), Platelet-Derived Growth Factor β chain (PDGF-BB), Fibroblast growth Factors (FGF4) and Hepatocyte Growth Factor (HGF), at 20-50 ng/ml each, for the entire culturing period according to the method of Schwartz et al. (Schwartz R E, Reyes M, Koodie L, Jiang Y, Blackstad M, Lund T, Lenvik T, Johnson S, Hu W S, Verfaillie C M. Multipotent adult progenitor cells from bone marrow differentiate into functional hepatocyte-like cells. J Clin Invest. 2002; 109 (10): 1291-302). Hepatocytes were also grown in serum free medium according to the method of Runge et al. (Runge D, Runge D M, Jager D, Lubecki K A, Beer Stolz D, Karathanasis S, Kietzmann T, Strom S C, Jungermann K, Fleig W E, Michalopoulos G K. Serum-free, long-term cultures of human hepatocytes: maintenance of cell morphology, transcription factors, and liver-specific functions. Biochem Biophys Res Commun. 2000; 269(1): 46-53).
In all of the above-mentioned hepatocytes culture conditions, cells are grown in the presence or absence of the retinoic acid antagonist AGN 194310 at concentrations ranging from 10^−5 M to 10^−9 M.
After a period of 3 weeks, cultures treated with 10^−5 M antagonist were detached with 0.25% trypsin, split and replated at a 1:2 ratio. The cells were either immunostained as described below, or visualized with Giemsa staining.
Murine hepatocyte cultures supplemented with EGF and HGF were evaluated as primary cultures, or following first and second passages. First passage cultures were grown for 2 weeks, split 1:2 and immunostained 8 days later for the presence of albumin, as described below. Second passage cultures were similarly grown for 2 weeks, split 1:2, and grown for an additional week, then split 1:4 and similarly immunostained 4 days later.
Ex-vivo expanded cells and hepatocytes were stained with Giemsa stain, according to manufacturer's instructions (Shandon, Pittsburg, Pa.) for 4 minutes at room temperature, washed in buffer solution for 4 minutes and washed 3-4 times with rinse solution.
Hepatocytes were probed for expression of α-fetoprotein (AFP) using a rabbit polyclonal antibody raised against a recombinant protein of human origin that cross-reacts with AFP from mouse (H-140 Santa Cruz Technology, Santa Cruz, Calif.), and albumin using a rabbit antiserum to mouse albumin (Cappel-ICN, Aurora, Ohio). Cells were fixed in methanol at −20° C. for 10 minutes, rinsed with PBS for 5 minutes, and permeabilized with 0.1% triton-X (Sigma, Jerusalem, Israel) in PBS for 5 minutes. The cells were then washed with Tris buffer saline (TBS) for 5 minutes and incubated with 1% bovine serum albumin (BSA) in PBS for 10 minutes. Endogeneous peroxidases were inactivated by incubation with peroxidase block (Envision, Dako, Carpinteria, Calif.) for 5 minutes, at room temperature. Cells were incubated with antibodies raised in rabbit against mouse albumin (at a dilution of 1:100); or against α-fetoprotein (at a dilution of 1:25) for 30 minutes. […]

[1] = listed as retinoic acid antagonist

`CCc1ccc(C2=CC(C)(C)Sc3ccc(C#Cc4ccc(C(=O)O)cc4)cc32)cc1` [AGN 194310, 4-[[4-(4-ethylphenyl)-2,2-dimethyl-(2H)-thiochroman-6-yl]-ethynyl]benzoic acid] was tested, and the “No of CD34+/Lin− × 10^4 (cumulative value)” value (mononuclear cells; 2 weeks) was 132.5 × 10^4, the “No of CD34 cells × 10^4 (cumulative value)” value (mononuclear cells; 2 weeks) was 169 × 10^4 and the “% CD34/Lin−” value (mononuclear cells; 2 weeks) was 78% and 78.4%. For the same molecule, the “No of CD34+/Lin− × 10^4 (cumulative value)” value (mononuclear cells; 5 weeks) was 237.8 × 10^4, the “No of CD34 cells × 10^4 (cumulative value)” value (mononuclear cells; 5 weeks) was 985 × 10^4 and the “% CD34/Lin−” value (mononuclear cells; 5 weeks) was 24% and 24.1%. The “number of hepatocytes in second passage cultures vs controls” value (primary hepatocytes; 10^−5 M to 10^−7 M, second passage, EGF and HGF supplemented) was “Significantly greater numbers of hepatocytes”, the “oval cell population (Giemsa)” value (primary hepatocytes) was “marked increase” and the “α-fetoprotein (AFP) expression vs control” value (primary hepatocytes) was “marked increase”. The “oval cell population (Giemsa)” value (primary hepatocytes; [1]) was “large population”, the “α-fetoprotein (AFP) expression vs control” value (primary hepatocytes; [1]) was “increase” and the “oval cells in first passage cultures” value (primary hepatocytes; first passage, EGF and HGF supplemented) was “numerous islets of oval cells”. The α-fetoprotein staining (primary hepatocytes; three weeks old primary cultures supplemented with EGF and HGF) was “Significant strong AFP staining”.
